Measured values from paper PMC3705412, “PTP1B Inhibitory and Anti-Inflammatory Effects of Secondary Metabolites Isolated from the Marine-Derived Fungus Penicillium sp. JF-55” (Marine Drugs, 2013).
pIC50: −log10 of the molar value.

Columns and labels:
[1] = target: T1, PTP1B (human, recombinant) (Homo sapiens, UniProt P18031); experiment: PTP1B assay (pNPP hydrolysis); type: biochemical
T1 construct: purchased BIOMOL Research Laboratories, Inc
T1 sequence (P18031 1-435): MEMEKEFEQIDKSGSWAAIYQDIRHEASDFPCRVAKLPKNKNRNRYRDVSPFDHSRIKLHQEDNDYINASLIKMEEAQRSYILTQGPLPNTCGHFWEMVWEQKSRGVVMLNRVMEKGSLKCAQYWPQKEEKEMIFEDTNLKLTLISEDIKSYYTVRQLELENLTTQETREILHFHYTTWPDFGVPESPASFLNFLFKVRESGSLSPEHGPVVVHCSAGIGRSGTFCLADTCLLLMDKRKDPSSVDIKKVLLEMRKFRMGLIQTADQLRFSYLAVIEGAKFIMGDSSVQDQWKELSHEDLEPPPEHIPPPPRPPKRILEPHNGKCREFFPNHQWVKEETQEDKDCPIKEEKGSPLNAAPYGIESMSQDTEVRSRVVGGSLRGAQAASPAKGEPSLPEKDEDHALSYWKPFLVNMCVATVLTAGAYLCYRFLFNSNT
Protocol: PTP1B (human, recombinant) was purchased from BIOMOL Research Laboratories, Inc. Enzyme activity was measured in a reaction mixture containing 2 mM p-nitrophenyl phosphate (pNPP) in 50 mM citrate, pH 6.0 (composition: 0.1 M NaCl, 1 mM EDTA, and 1 mM dithiothreitol (DTT)). The reaction mixture was placed in an incubator maintained at 30 °C for 30 min, and the reaction was terminated by the addition of 1 N NaOH. The amount of p-nitrophenol produced was estimated by measuring the increase in absorbance at 405 nm. The nonenzymatic hydrolysis of 2 mM pNPP was corrected by measuring the increase in absorbance at 405 nm in the absence of PTP1B enzyme. For the kinetic analysis, the reaction mixture consisted of different concentrations of pNPP as a PTP1B substrate in the absence or presence of compound 1, and assays were performed as described above. The Michaelis-Menten constant (Km) and maximum velocity (Vmax) of PTP1B were determined by the Lineweaver-Burk plot using a GraphPad Prism® 4 program (GraphPad Software Inc., San Diego, CA, USA).

Nrf2 = experiment: Western blotting of Nrf2 nuclear translocation in macrophages; type: cell-based, murine (C57BL/6 mice); conditions: 40 μM; 15, 30, 60, 90 and 120 min
Protocol: Figure 7 The effects of penstyrylpyrone (1) on the nuclear translocation of Nrf2 (A) and anti-oxidant response element (ARE) activation (B) in murine peritoneal macrophages. Murine peritoneal macrophages were treated with 40 μM of penstyrylpyrone (1) for 15, 30, 60, 90 and 120 min. The nuclei were fractionated from the cytosol using PER-Mammalian Protein Extraction buffer. Nrf2 protein was detected using Western blotting analysis and representative blots of three independent experiments are shown. Quiescent cells transiently transfected with ARE-luciferase or control vector were incubated for 1 h with indicated concentrations of latifolin in the presence of 5% FBS. […]
Murine peritoneal macrophages were homogenized (1:20, w:v) in PER-Mammalian Protein Extraction buffer (Pierce Biotechnology, Rockford, IL, USA) containing freshly added protease inhibitor cocktail I (EMD Biosciences, San Diego, CA, USA) and 1 mM phenylmethylsulfonyl fluoride (PMSF). […] The protein concentration was determined using the bicinchoninic acid (BCA) protein assay kit.
Western blotting analysis was performed by lysing the cells in 20 mM Tris-HCl buffer (pH 7.4) containing a protease inhibitor mixture (0.1 mM PMSF, 5 mg/mL aprotinin, 5 mg/mL pepstatin A, and 1 mg/mL chymostatin). The protein concentration was determined using a Lowry protein assay kit (P5626; Sigma Chemical Co., St. Louis, MO, USA). […]

COc1cc(/C=C/c2ccccc2)oc(=O)c1C [Penstyrylpyrone (1), penstyrylpyrone]
pIC50 ([1]; 2 mM pNPP, pH 6.0, 30 °C, 30 min, read-out: PTP1B inhibitory activity IC50): 5.28
Mode of PTP1B inhibition (Lineweaver-Burk, non-linear regression) ([1]; different concentrations of pNPP): competitive
Nrf2 levels in nuclear fractions (Nrf2): gradual increase in Nrf2 levels
